Laboratory results published in ChEMBL document CHEMBL5465560, “Selectivity Literature for EUbOPEN Chemogenomic Library” (2024).

Legend:
[1] = biological target: T1, Aurora kinase A (Homo sapiens) (UniProt O14965); test: Selectivity interaction (KinomeScan (DiscoverX)) EUB0001049a STK6; conditions: at 1 µM
T1 sequence (whole entry): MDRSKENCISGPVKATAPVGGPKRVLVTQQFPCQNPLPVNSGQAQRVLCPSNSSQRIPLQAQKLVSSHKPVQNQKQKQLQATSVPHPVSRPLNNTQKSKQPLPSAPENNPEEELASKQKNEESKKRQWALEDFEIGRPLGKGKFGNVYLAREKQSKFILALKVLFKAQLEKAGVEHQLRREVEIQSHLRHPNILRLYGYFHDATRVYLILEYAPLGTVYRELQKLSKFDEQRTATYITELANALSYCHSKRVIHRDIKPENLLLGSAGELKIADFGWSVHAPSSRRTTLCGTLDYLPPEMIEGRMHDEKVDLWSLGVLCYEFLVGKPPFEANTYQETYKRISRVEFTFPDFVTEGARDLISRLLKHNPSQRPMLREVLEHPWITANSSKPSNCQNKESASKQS

[2] = biological target: RAF proto-oncogene serine/threonine-protein kinase (Homo sapiens) (UniProt P04049); test: Selectivity interaction (KinomeScan (DiscoverX)) EUB0001049a RAF1; conditions: at 1 µM
RAF proto-oncogene serine/threonine-protein kinase (Homo sapiens), sequence (P04049 whole entry): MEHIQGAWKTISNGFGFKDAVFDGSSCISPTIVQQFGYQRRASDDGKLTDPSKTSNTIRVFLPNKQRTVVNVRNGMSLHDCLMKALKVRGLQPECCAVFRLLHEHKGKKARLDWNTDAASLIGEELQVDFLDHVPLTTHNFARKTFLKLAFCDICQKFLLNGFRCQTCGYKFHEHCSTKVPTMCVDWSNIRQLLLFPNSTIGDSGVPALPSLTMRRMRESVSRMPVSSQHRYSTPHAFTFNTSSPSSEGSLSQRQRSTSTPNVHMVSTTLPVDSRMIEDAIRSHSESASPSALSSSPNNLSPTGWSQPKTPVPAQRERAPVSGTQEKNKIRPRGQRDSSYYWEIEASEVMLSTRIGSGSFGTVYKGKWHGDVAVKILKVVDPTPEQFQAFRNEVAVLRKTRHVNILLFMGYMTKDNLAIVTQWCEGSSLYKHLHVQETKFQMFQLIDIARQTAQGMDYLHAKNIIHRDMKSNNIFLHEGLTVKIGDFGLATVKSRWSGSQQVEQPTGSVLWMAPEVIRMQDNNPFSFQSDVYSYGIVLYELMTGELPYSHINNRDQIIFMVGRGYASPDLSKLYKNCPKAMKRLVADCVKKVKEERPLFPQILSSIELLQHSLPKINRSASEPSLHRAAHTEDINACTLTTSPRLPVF

[3] = system: Epidermal growth factor receptor (Homo sapiens), P00533 [G719C]; test: (§1) Selectivity interaction (KinomeScan (DiscoverX)) EUB0000666a EGFR; conditions: at 10 µM
[4] = system: Epidermal growth factor receptor (Homo sapiens), P00533 [G719S]; test: as §1; conditions: at 10 µM
[5] = system: Epidermal growth factor receptor (Homo sapiens), P00533 [L858R,T790M]; test: as §1; conditions: at 10 µM
Epidermal growth factor receptor (Homo sapiens), P00533 [L858R,T790M], sequence (P00533 whole entry T790M/L858R, looked up): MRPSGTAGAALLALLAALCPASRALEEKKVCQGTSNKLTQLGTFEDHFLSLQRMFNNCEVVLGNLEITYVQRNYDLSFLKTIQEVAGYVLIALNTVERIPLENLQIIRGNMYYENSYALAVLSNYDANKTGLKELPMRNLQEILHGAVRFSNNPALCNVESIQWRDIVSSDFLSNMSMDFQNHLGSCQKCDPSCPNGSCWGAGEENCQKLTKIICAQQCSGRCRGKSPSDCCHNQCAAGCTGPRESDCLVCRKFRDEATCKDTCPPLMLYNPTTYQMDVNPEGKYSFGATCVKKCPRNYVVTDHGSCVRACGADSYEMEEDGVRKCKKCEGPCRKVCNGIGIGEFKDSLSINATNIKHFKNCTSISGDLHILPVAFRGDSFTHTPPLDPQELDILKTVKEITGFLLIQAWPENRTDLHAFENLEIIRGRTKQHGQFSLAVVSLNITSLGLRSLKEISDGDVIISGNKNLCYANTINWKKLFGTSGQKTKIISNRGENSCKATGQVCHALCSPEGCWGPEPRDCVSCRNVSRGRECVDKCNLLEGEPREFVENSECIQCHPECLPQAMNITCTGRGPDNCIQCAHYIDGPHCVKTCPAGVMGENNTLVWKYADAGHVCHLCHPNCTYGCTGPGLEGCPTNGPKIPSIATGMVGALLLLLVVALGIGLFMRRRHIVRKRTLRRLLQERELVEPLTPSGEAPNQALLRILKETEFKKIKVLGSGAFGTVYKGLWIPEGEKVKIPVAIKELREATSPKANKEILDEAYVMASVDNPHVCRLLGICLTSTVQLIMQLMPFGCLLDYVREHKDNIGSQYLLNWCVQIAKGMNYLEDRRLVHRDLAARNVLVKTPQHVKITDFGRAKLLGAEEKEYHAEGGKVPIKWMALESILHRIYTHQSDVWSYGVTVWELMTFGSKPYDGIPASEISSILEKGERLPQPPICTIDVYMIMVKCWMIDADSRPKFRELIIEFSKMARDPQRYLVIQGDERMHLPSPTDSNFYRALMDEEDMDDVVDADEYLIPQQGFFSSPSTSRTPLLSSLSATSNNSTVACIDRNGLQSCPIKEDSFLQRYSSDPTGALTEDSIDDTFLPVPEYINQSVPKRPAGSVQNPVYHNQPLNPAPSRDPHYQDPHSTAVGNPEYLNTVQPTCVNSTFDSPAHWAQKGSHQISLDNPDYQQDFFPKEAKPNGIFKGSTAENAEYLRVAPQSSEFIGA

[6] = system: Epidermal growth factor receptor (Homo sapiens), P00533 [L858R]; test: as §1; conditions: at 10 µM
[7] = system: Epidermal growth factor receptor (Homo sapiens), P00533 [T790M]; test: as §1; conditions: at 10 µM
[8] = system: Epidermal growth factor receptor (Homo sapiens), P00533 [UNDEFINED MUTATION]; test: as §1; conditions: at 10 µM
Epidermal growth factor receptor (Homo sapiens), P00533 [UNDEFINED MUTATION], sequence (P00533 whole entry, looked up, change not shown): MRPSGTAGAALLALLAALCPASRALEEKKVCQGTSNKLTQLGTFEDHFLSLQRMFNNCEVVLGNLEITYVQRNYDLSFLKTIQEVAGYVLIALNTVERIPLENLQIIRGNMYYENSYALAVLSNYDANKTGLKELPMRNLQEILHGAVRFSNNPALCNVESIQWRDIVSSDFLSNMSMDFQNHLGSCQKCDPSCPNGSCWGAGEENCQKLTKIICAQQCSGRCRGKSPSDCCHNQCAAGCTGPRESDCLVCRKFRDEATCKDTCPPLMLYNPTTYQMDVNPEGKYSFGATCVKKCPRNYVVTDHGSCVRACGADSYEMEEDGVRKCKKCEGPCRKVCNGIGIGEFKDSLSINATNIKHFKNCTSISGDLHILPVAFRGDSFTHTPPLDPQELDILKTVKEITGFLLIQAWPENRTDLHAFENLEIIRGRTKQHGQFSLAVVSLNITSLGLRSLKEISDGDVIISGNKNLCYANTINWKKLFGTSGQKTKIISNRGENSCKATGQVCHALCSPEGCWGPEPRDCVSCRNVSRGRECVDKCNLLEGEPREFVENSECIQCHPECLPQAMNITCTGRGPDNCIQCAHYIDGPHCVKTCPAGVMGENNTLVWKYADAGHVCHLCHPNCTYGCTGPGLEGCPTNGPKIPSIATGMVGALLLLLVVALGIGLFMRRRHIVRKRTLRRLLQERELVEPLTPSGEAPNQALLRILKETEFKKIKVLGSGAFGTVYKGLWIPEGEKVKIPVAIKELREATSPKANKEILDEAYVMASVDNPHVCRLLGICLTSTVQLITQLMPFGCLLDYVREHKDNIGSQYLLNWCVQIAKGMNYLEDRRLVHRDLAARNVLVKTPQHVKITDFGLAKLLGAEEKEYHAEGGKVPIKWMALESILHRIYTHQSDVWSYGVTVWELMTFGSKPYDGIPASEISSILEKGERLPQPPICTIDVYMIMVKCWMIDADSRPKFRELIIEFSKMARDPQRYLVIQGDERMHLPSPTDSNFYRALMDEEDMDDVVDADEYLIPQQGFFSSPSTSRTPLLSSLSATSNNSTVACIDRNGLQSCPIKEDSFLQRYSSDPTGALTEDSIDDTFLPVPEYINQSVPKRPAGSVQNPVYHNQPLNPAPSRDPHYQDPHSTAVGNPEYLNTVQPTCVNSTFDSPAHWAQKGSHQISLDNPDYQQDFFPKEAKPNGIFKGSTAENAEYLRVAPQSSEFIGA

[9] = biological target: T2, Ephrin type-B receptor 6 (Homo sapiens) (UniProt O15197); test: Selectivity interaction (KinomeScan (DiscoverX)) EUB0001619a EPHB6; conditions: at 1 µM
T2 sequence (whole entry): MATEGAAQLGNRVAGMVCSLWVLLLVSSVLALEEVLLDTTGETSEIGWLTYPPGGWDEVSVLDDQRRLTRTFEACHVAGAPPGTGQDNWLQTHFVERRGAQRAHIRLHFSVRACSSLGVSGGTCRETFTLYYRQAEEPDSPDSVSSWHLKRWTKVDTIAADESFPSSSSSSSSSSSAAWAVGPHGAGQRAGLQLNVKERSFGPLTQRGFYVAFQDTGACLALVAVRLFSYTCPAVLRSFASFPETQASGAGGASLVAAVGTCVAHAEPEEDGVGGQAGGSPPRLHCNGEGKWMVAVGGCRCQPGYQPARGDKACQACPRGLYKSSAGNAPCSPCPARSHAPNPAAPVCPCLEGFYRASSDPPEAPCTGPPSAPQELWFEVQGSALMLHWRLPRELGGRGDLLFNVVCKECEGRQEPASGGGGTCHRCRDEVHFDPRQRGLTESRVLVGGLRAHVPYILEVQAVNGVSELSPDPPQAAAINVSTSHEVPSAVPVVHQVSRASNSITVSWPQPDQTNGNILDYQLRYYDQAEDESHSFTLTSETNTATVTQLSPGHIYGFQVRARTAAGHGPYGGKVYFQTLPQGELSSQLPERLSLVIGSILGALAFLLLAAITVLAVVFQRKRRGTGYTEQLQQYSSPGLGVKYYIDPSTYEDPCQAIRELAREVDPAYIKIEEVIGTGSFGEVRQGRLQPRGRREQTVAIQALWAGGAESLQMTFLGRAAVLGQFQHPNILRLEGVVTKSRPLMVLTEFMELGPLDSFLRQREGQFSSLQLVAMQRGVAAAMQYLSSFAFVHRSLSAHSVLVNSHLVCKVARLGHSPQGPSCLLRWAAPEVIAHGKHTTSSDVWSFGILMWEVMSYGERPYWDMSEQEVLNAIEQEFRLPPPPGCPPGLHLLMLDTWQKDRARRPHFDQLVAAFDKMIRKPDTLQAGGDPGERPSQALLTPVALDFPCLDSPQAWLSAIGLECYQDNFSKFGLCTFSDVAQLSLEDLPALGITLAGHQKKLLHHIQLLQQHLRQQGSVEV

[10] = biological target: T3, NUAK family SNF1-like kinase 2 (Homo sapiens) (UniProt Q9H093); test: Selectivity interaction (ActivX KiNativ screen (ex vivo kinase selectivity in human PBMCs)) EUB0001619a NUAK2; format: cell-based; conditions: PBMC, at 1 µM
T3 sequence (whole entry): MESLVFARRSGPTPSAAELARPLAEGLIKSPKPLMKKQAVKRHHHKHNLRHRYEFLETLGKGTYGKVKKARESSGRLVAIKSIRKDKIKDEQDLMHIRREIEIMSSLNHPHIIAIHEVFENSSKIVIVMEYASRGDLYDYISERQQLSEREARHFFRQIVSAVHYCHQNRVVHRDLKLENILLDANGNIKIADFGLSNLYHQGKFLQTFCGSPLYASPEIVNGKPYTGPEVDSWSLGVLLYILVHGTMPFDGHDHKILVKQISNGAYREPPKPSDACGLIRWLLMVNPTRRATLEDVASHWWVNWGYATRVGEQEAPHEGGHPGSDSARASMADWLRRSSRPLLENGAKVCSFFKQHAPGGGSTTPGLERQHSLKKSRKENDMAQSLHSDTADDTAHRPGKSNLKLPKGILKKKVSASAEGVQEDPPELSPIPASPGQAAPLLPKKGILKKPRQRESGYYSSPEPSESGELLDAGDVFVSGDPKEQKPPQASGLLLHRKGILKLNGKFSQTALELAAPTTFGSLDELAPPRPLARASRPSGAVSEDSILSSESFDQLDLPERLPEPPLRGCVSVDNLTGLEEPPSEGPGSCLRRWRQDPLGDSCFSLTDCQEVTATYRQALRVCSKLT

[11] = biological target: Tyrosine-protein kinase Blk (Homo sapiens) (UniProt P51451); test: Selectivity interaction (ProQinase) EUB0000171b BLK
Tyrosine-protein kinase Blk (Homo sapiens), sequence (P51451 2-505 limits assumed): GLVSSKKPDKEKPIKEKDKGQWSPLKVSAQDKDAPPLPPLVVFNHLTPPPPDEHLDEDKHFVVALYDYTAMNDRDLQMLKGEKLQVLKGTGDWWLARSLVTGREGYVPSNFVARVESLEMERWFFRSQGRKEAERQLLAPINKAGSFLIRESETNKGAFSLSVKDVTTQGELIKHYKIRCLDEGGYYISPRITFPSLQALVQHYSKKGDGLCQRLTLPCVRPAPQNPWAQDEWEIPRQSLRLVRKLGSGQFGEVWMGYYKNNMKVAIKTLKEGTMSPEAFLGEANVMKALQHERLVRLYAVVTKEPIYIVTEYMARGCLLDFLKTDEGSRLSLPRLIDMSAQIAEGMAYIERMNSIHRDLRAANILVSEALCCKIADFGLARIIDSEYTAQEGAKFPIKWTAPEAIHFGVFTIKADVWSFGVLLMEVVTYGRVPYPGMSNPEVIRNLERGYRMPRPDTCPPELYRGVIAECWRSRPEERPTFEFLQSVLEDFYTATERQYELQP

[12] = biological target: Platelet-derived growth factor receptor beta (Homo sapiens, UniProt P09619); test: Selectivity interaction (ProQinase) EUB0000171b PDGFRB
Platelet-derived growth factor receptor beta, sequence (P09619 whole entry): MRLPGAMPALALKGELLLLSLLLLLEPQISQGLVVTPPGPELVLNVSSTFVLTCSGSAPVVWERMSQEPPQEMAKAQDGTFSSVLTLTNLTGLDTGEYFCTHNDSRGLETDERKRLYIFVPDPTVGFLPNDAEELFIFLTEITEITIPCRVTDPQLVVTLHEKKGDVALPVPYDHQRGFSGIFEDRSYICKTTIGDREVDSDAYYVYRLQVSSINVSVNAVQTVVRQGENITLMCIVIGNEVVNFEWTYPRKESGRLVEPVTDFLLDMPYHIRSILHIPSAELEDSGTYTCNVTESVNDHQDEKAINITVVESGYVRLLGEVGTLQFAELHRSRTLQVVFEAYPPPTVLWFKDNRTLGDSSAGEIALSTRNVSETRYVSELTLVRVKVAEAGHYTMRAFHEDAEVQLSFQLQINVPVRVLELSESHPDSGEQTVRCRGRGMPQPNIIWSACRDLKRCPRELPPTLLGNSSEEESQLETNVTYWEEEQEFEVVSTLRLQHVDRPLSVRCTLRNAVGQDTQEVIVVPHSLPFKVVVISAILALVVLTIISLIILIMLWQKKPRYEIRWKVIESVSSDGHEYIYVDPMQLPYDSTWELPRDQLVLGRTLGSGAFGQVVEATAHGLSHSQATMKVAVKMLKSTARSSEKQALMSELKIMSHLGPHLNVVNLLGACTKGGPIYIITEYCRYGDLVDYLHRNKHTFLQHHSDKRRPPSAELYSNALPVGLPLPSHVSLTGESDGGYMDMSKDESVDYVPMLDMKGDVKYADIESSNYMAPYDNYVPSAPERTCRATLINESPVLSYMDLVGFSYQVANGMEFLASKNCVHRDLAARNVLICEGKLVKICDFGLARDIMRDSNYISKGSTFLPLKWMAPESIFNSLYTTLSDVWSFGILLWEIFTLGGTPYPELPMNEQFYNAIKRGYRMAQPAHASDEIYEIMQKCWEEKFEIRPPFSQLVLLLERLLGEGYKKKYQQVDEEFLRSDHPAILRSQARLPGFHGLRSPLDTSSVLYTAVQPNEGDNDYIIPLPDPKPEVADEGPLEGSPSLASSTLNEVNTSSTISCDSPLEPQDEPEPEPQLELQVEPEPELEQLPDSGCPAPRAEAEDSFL

COc1cc(Nc2nc(C)cc(-c3cnn4nc(OC)ccc34)n2)cc(C(F)(F)F)c1
% of control [1]: 93% | % of control [2]: 100%

O=C(NOC[C@H](O)CO)c1ccc(F)c(F)c1Nc1ccc(I)cc1F
% of control [3]: 86% | % of control [4]: 66% | % of control [5]: 100% | % of control [6]: 79% | % of control [7]: 77% | % of control [8]: 84%

N#Cc1cccc(-c2c[nH]c3ncnc(N4CCOCC4)c23)c1
% of control [9]: 86% | % of inhibition [10]: 18%

C=CC(=O)Nc1cccc(C(=O)Nc2ccc(Nc3cc(-c4[nH]c(SC)nc4C)ccn3)cc2)c1
% of control ([11]; at 1 µM): 77% | % of control ([11]; at 5 µM): 81% | % of control ([12]; at 1 µM): 74% | % of control ([12]; at 5 µM): 46%
